Experimental data published in ChEMBL document CHEMBL1201862, “PubChem BioAssay data set” (2004).
The source made the active and inactive calls.

What was measured:
[1] = luciferase reporter signal suppression in cells – H4 neuroglioma cells, luminescence, dose response (AID 1990); assay type: functional, cell-based
SUMO-activating enzyme = SUMO-activating enzyme (Homo sapiens, UniProt Q9UBT2); experiment: blockers of SAE1/SAE2–UBC9 SUMO transfer – biochemical, HTRF, uHTS, primary screen (AID 2006); assay type: protein-complex assay
Caspase-7 = target: T1, Caspase-7 (Homo sapiens, UniProt P55210); experiment: activation of caspase-7 zymogen – biochemical, absorbance, counter-screen for procaspase-3 activator project, dose response (AID 489013)
T1 sequence (P55210 whole entry): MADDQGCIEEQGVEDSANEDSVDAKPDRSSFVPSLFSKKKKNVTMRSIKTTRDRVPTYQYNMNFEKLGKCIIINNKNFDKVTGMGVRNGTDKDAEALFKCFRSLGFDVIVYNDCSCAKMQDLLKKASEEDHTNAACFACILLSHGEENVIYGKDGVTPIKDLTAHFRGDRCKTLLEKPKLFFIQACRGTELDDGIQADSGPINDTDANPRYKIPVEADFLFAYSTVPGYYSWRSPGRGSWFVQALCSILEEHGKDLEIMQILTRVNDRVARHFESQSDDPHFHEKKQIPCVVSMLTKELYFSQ

[2] = target: Rho-associated protein kinase 1 (Homo sapiens, UniProt Q13464); assay type: functional;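 note: measured within a broad kinome-wide panel profiling many kinases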
[3] = target: Dual specificity tyrosine-phosphorylation-regulated kinase 3 (Homo sapiens, UniProt O43781); assay type: functional;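 note: measured as one member of a broad kinase panel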
[4] = target: Fibroblast growth factor receptor 3 (Homo sapiens, UniProt P22607); assay type: functional
[5] = target: Glycogen synthase kinase-3 beta (Homo sapiens, UniProt P49841); assay type: functional;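 note: value comes from a broad kinome profiling panel, with GSK3B as the panel member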
[6] = target: Insulin-like growth factor 1 receptor (Homo sapiens, UniProt P08069); experiment: Navigating the Kinome. Panel member name: IGF1R; assay type: functional
[7] = target: Mitogen-activated protein kinase 1 (Homo sapiens, UniProt P28482); assay type: functional
[8] = target: cAMP-dependent protein kinase catalytic subunit alpha (Homo sapiens, UniProt P17612); assay type: functional
[9] = target: Leukocyte tyrosine kinase receptor (Homo sapiens, UniProt P29376); experiment: Navigating the Kinome. Panel member name: LTK; assay type: functional
[10] = target: Tyrosine-protein kinase Blk (Homo sapiens, UniProt P51451); assay type: functional;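 note: obtained as one member of a kinome-wide kinase assay panel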
[11] = target: Tyrosine-protein kinase FRK (Homo sapiens, UniProt P42685); assay type: functional;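 note: FRK tested as one member of a kinome panel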
[12] = target: MAP/microtubule affinity-regulating kinase 3 (Homo sapiens, UniProt P27448); assay type: functional;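 note: MARK3 affinity measured as one member of a kinome panel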
Insulin receptor = Insulin receptor (Homo sapiens, UniProt P06213); assay type: functional;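 note: insulin receptor kinase tested as one member of a kinome-wide kinase panel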
Aurora kinase B = Aurora kinase B (Homo sapiens, UniProt Q96GD4); assay type: functional
[13] = target: Death-associated protein kinase 3 (Homo sapiens, UniProt O43293); assay type: functional;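 note: measured as one member of a kinome-wide profiling panel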
[14] = target: Megakaryocyte-associated tyrosine-protein kinase (Homo sapiens, UniProt P42679); assay type: functional;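 note: affinity measured as one member of a kinase panel (Navigating the Kinome) against MATK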
[15] = target: Calcium/calmodulin-dependent protein kinase type II subunit gamma (Homo sapiens, UniProt Q13555); assay type: functional
SRSF protein kinase 1 = SRSF protein kinase 1 (Homo sapiens, UniProt Q96SB4); assay type: functional;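 note: measured as one member of a kinome-wide kinase profiling panel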
Activin receptor type-1 = Activin receptor type-1 (Homo sapiens, UniProt Q04771); experiment: Navigating the Kinome. Panel member name: ACVR1; assay type: functional
[16] = target: Testis-specific serine/threonine-protein kinase 1 (Homo sapiens, UniProt Q9BXA7); assay type: functional
[17] = target: Serine/threonine-protein kinase Chk1 (Homo sapiens, UniProt O14757); assay type: functional;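 note: measured as one member of a kinome-wide kinase profiling panel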
[18] = target: Homeodomain-interacting protein kinase 4 (Homo sapiens, UniProt Q8NE63); assay type: functional
[19] = target: Casein kinase I isoform gamma-1 (Homo sapiens, UniProt Q9HCP0); assay type: functional;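 note: measured as the CSNK1G1 member of a kinome profiling panel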
[20] = target: Tyrosine-protein kinase Fer (Homo sapiens, UniProt P16591); assay type: functional;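 note: FER tested as one member of a kinome panel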
[21] = target: Tyrosine-protein kinase Srms (Homo sapiens, UniProt Q9H3Y6); assay type: functional;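 note: SRMS measured as one member of a kinome-wide kinase profiling panel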
[22] = target: Casein kinase I isoform delta (Homo sapiens, UniProt P48730); assay type: functional;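 note: measured as one member (CSNK1D) of a kinome panel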
[23] = target: Receptor tyrosine-protein kinase erbB-2 (Homo sapiens, UniProt P04626); experiment: Navigating the Kinome. Panel member name: ERBB2; assay type: functional
A-375 = experiment: MITF: Counter assay: A375 proliferation Measured in Cell-Based System Using Plate Reader - 2084-03_Inhibitor_Dose_DryPowder_Activity. [Related pubchem assays (depositor defined):AID488944]; assay type: functional; conditions: Homo sapiens
[24] = Trypanosoma cruzi growth suppression in host cells – NIH3T3 host cells, beta-gal luminescence, confirmation (AID 2044); assay type: functional, cell-based;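 note: intracellular parasites grown in NIH/3T3 mouse fibroblasts as host cells; luminescent beta-galactosidase reporter signal from transgenic T. cruzi replicating inside host cells; inhibitors lower the luminescence signal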

Chain of Dual specificity tyrosine-phosphorylation-regulated kinase 3 (O43781 whole entry): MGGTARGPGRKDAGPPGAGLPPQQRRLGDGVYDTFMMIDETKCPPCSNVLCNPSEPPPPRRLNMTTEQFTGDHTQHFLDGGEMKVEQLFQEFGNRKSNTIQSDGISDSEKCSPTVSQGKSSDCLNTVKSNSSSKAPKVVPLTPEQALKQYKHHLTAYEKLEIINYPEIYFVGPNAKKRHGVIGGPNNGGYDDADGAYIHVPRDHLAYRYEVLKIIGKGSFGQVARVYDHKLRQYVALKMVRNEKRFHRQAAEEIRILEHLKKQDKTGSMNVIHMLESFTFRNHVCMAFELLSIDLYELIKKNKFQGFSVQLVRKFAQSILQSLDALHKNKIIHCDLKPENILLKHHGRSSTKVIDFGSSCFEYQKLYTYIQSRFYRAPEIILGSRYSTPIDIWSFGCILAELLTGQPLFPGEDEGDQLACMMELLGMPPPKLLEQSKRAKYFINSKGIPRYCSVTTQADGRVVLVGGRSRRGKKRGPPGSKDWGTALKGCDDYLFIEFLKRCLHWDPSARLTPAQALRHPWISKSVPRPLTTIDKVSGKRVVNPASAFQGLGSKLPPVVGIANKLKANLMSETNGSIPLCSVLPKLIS
Chain of Aurora kinase B (Q96GD4 whole entry): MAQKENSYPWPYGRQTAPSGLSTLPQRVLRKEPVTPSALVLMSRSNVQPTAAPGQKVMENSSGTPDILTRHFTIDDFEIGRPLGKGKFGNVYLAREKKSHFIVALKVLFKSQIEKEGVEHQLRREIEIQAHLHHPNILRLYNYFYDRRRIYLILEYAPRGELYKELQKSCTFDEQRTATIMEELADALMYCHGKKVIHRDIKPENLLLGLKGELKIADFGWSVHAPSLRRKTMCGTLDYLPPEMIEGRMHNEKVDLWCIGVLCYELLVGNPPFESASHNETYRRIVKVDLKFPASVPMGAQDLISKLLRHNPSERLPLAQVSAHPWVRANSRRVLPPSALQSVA
Chain of Tyrosine-protein kinase Srms (Q9H3Y6 whole entry, canonical isoform): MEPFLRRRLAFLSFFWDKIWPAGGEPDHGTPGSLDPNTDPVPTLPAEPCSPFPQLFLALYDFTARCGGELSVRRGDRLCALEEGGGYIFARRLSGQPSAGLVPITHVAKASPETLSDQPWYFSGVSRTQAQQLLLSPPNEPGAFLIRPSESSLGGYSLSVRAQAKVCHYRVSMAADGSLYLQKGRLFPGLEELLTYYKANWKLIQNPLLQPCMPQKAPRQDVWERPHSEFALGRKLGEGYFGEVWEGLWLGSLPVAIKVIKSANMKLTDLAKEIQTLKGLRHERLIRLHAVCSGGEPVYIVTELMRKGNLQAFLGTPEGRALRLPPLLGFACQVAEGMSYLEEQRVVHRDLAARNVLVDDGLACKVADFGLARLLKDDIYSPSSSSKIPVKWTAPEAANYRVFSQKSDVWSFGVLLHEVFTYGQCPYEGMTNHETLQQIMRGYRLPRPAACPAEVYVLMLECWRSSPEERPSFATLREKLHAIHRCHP
Chain of Death-associated protein kinase 3 (O43293 whole entry): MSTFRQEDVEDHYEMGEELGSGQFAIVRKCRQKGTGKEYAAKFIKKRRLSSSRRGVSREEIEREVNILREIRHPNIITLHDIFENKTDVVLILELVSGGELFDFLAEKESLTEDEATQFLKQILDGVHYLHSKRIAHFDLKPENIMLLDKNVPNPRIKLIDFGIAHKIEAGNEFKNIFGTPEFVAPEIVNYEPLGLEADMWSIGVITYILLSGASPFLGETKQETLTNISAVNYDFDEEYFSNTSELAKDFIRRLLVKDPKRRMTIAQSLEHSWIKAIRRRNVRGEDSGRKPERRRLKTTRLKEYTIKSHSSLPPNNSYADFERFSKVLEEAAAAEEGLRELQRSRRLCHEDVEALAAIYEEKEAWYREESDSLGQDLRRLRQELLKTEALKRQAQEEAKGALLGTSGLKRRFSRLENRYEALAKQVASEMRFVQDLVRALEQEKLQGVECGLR
Chain of Casein kinase I isoform gamma-1 (Q9HCP0 whole entry, canonical isoform): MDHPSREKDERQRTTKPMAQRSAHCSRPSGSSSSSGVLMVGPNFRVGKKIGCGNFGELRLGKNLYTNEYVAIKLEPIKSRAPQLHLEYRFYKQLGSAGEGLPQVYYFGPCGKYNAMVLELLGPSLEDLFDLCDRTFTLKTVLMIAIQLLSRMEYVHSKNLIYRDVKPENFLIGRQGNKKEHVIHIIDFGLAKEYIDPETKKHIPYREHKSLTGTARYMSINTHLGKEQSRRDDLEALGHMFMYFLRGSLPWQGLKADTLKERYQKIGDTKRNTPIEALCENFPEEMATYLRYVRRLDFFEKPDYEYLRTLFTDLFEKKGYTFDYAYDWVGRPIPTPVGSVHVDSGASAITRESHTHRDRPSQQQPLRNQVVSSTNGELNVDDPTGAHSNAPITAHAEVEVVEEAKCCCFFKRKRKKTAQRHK
Chain of Serine/threonine-protein kinase Chk1 (O14757 whole entry): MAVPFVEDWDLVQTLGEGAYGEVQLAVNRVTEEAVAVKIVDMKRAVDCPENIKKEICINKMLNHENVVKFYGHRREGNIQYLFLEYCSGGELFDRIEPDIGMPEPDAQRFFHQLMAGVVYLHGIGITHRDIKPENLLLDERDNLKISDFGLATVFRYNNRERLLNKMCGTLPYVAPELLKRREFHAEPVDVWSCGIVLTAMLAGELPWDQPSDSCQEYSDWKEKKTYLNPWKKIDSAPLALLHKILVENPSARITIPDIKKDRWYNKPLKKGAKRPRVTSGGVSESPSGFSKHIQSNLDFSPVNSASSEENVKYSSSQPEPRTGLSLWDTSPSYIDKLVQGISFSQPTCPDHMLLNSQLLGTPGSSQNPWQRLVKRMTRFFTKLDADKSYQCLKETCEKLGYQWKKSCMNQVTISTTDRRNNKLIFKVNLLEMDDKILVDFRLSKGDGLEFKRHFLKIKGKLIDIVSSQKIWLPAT
Chain of MAP/microtubule affinity-regulating kinase 3 (P27448 whole entry): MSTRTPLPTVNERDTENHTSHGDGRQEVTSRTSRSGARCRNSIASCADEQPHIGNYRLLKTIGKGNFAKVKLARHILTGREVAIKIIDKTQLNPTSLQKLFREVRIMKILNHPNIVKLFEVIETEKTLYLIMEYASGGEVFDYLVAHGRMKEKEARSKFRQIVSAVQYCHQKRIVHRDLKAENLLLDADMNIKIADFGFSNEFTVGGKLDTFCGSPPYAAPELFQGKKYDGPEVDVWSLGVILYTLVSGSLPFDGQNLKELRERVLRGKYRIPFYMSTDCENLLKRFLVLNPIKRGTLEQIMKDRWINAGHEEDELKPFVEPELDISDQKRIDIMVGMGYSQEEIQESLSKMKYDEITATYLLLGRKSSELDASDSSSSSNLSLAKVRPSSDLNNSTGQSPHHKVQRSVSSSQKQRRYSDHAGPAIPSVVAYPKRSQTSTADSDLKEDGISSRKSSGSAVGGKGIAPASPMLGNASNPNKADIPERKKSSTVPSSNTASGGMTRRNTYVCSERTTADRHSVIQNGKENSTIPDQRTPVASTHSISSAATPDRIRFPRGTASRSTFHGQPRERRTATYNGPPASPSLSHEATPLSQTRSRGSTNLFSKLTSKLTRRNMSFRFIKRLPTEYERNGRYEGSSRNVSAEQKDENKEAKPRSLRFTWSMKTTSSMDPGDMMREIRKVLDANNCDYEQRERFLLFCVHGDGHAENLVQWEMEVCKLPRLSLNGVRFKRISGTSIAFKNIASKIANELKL
Chain of Tyrosine-protein kinase FRK (P42685 whole entry): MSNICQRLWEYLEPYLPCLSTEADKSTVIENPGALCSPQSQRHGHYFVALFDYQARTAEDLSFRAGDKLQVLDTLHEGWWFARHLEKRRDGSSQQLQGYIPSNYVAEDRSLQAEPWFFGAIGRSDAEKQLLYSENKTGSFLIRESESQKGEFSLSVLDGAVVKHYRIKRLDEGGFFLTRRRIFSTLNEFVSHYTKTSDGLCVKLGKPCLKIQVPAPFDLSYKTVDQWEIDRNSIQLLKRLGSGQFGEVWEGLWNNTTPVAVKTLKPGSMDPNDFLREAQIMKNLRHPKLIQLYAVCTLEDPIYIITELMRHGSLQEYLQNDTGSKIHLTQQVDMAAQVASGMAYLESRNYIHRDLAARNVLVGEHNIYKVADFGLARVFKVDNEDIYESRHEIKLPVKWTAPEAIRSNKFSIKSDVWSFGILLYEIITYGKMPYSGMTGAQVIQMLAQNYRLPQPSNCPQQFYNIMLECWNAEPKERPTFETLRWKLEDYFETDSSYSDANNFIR
Chain of Homeodomain-interacting protein kinase 4 (Q8NE63 whole entry, canonical isoform): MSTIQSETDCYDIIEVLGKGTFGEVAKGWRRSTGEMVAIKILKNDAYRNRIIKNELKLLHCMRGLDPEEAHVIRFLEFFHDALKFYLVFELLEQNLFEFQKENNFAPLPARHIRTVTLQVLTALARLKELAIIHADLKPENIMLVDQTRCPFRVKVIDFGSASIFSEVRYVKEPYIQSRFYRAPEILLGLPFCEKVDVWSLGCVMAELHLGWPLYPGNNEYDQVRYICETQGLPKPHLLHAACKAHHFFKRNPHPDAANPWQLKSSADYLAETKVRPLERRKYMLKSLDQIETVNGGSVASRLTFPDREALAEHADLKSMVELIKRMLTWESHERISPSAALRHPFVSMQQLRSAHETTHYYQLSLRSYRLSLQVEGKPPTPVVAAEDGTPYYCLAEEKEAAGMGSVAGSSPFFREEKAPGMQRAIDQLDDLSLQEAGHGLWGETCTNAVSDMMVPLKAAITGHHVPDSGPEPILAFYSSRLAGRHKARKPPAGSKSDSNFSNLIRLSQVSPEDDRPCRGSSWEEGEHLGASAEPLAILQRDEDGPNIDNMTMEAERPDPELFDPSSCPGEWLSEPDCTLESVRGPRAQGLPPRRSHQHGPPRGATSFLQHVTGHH

NS(=O)(=O)c1ccc(NC2=CC(=O)C(=O)c3ccccc32)cc1
> 120000 nM (not active): EC50 [1]
active: IC50 (SUMO-activating enzyme) 9540 nM

O=C(N/N=C/c1ccc(O)cc1O)c1ccc(CN2C(=O)c3cccc4cccc2c34)cc1
inactive: EC50 (Caspase-7) > 85300 nM

Clc1cc(-c2c[nH]c3ncccc23)nc(NC2CCCCC2)n1
inactive: Ki [4] > 2000 nM | Ki [5] > 1000 nM | Ki [6] > 2000 nM | Ki [9] > 2510 nM | Ki [10] > 1580 nM | Ki [11] > 2510 nM | Ki (Aurora kinase B) > 6310 nM | Ki [14] > 2000 nM | Ki (Activin receptor type-1) > 3980 nM | Ki [16] > 1580 nM | Ki [21] > 1580 nM | Ki [23] > 1580 nM
active: Ki [2] 15.8 nM | Ki [3] 7.94 nM | Ki [7] 398 nM | Ki [8] 251 nM | Ki [12] 158 nM | Ki (Insulin receptor) 3160 nM | Ki [13] 501 nM | Ki [15] 501 nM | Ki (SRSF protein kinase 1) 794 nM | Ki [17] 3980 nM | Ki [18] 1260 nM | Ki [19] 126 nM | Ki [20] 398 nM | Ki [22] 63.1 nM

CCC(=O)NC(c1ccccc1OC)c1ccc2cccnc2c1O (stereo unspecified)
active: AC50 (A-375) 35000 nM | EC50 [24] 951 nM
